From US20240084258A1, “METHOD FOR PREPARING BROWN ADIPOCYTE” (KYOTO PREFECTURAL PUBLIC UNIVERSITY CORPORATION, priority 2015, published 2024) come the findings set out here.

Assay [1] relates to human dermal fibroblasts (HDFs). The assay is described as follows: UCP1, CIDEA and KCNK3 gene mRNA by real time RT-PCR (Example 17). It is filed as cell-based. The method, then:
(Day −1). In the control (Ctrl) group, the culture supernatant of the next day (Day 0) was removed by suction and the cells were cultured in a normal medium up to day 14 while substituting the medium with a fresh one once every other day. In groups other than the control (Ctrl) group, the culture supernatant was removed by suction on day 0, and an adipocyte induction medium added with any of ALK5 inhibitor II (4 μM) and LY2157299 (8 μM) was added at 1 mL/well.
Thereafter, the cells were cultured in an adipocyte induction medium free of any compound of ALK5 inhibitor II and LY215799 during Day 9-Day 14. On day 14, the medium was removed by suction from the wells of all groups, and the cells were washed with PBS(−).
A general note: In qPCR the cycle at which signal appears reflects the starting amount.

For assay [2] the test system is unchanged. The method, then:
(§1) Human normal skin-derived fibroblast (human dermal fibroblasts; HDFs) were suspended in a normal medium (10% FBS-added Dulbecco's modified minimum essential medium; DMEM). This was seeded in a 12-well plate at a concentration of 3×10^4 cells/well and culturing was started at 5% CO2/95% humidified air, 37° C. The next day (day 0), the culture supernatant was removed by suction and a normal medium (group 1), an adipocyte induction medium (group 2), or an adipocyte induction medium (groups 3-8) added with ALK5 inhibitor II at concentration of 4 μM was added at 1 mL/well.
Once every 2 days, the medium was substituted by a fresh one. In groups 3-7, the cells were cultured in an adipocyte induction medium added with ALK5 inhibitor II only in the periods of Days 0-2, Days 0-4, Days 0-6, Days 0-8 and Days 0-10, respectively, and thereafter cultured in an adipocyte induction medium without addition of ALK5 inhibitor II. In group 8, the cells were cultured in an adipocyte induction medium added with ALK5 inhibitor II throughout the whole period of Days 0-14.

Assay [3] has the same test system. The method, then: as §1
The adipocyte induction medium is DMEM added with 1 nM T3, 1 μM Rosiglitazone, 0.5 mM isobutylmethylxanthine (IBMX), 0.5 μM dexamethason, 1 μg/mL Insulin and 10% FBS.
Once every 2 days, the medium was substituted by a fresh one. In groups 3-7, the cells were cultured in an adipocyte induction medium added with ALK5 inhibitor II only in the periods of Days 0-2, Days 0-4, Days 0-6, Days 0-8 and Days 0-10, respectively, and thereafter cultured in an adipocyte induction medium without addition of ALK5 inhibitor II. In group 8, the cells were cultured in an adipocyte induction medium added with ALK5 inhibitor II throughout the whole period of Days 0-14. On day 14, the medium was removed from each well by suction, the cells were washed with PBS(−) and total RNA was extracted from the cells by using RNA easy Mini Kit manufactured by Qiagen. cDNA was synthesized from the RNA by using Rever Tra Ace qPCR RT Master Mix. The cDNA was admixed with Real-time PCR Master Mix, primers specific to UCP1 gene or β actin gene and Taqman probe. qRT-PCR was performed using AB7300 Real-time PCR system. The mRNA level of UCP1 gene was quantified as a ratio to β actin gene mRNA and calculated with the value of fibroblast cultured in the normal medium as 1.
This is another data set of the same source.

Assay [4] shares this test system. The experiment in a line: Oil Red O staining (Example 9). It is filed as cell-based. The settings on record: D4476 2 μM in addition to Rosiglitazone and T3, day 14, FIG. 9. The method, then: (§2) The next day, the culture supernatant was removed by suction and, as described in the Figure, a normal medium, an adipocyte induction medium, or an adipocyte induction medium added with each low-molecular-weight compound and the like was added at 500 μL/well.
(§3) The adipocyte induction medium is a 10% FBS-added DMEM+MDI medium (10% FBS-added DMEM supplemented with 0.5 mM isobutylmethylxanthine (IBMX), 0.5 μM dexamethason and 1 μg/mL Insulin).
(§4) The concentrations of the additives are as follows: • T3: 1 nM • Rosiglitazone: 1 μM • D4476: 2 μM.
(§5) The culture medium was substituted by a fresh one every 3-4 days and the cells were cultured up to day 14.
The cells were washed 3 times with sterile distilled water, Oil Red O staining solution was added, and the mixture was incubated at room temperature for 15 min. Then the cells were washed with sterile distilled water and photographed at a magnification of 100 with a microscope.

The test system is the same in assay [5]. The experiment in a line: BODIPY, UCP1 and DAPI co-staining (Example 10). The settings on record: D4476 2 μM in addition to T3 and Rosiglitazone, day 14, FIG. 10A, 10B. It is filed as cell-based. The method, then:
as §2, §3, §4, §5
The cells were fixed with 4% para-formaldehyde and washed with PBS(−).
Then, the cells were reacted in BODIPY 493/503 (Invitrogen)/PBS solution at room temperature for 5 min, washed 3 times with PBS and stained with DAPI. The cells were photographed at a magnification of 200 with a fluorescence microscope.

Assay [6] shares this test system. The experiment in a line: UCP1 gene mRNA by real time RT-PCR (Example 2). The settings on record: induction medium + T3 + Rosiglitazone, D4476 2 μM, FSK 2 μM, PD0325901 1 μM, SB431542 2 μM, day 14, FIG. 2. It is filed as cell-based. The method, then:
This was seeded in a 24-well plate at a concentration of 1×10^4 cells/well (day 0), and culturing was started at 5% CO2/95% humid air, 37° C. The next day, the culture supernatant was removed by suction and, as described in the Figure, a normal medium, an adipocyte induction medium, or an adipocyte induction medium added with each low-molecular compound and the like was added at 500 μL/well. […] The concentrations of the additives are as follows: • T3: 1 nM • Rosiglitazone: 1 μM • D4476: 2 μM • Pifithrin alpha [p53 inhibitor]: 5 μM • Forskolin (FSK): 2 μM • PD0325901: 1 μM • SB431542: 2 μM. The culture medium was substituted by a fresh one every 3-4 days and the cells were cultured up to day 14.

Setting [7] is: ALK5 inhibitor II 4 μM or LY2157299 8 μM up to Day 9, day 14, FIG. 17.

Where two headings read alike, the source gives them in different places.

For the compound `Cc1cccc(-c2n[nH]cc2-c2ccc3ncccc3n2)n1` [ALK5 Inhibitor II, 2-(3-(6-Methylpyridin-2-yl)-1H-pyrazol-4-yl)-1,5-naphthyridine], the CIDEA gene expression entry in assay [1] (setting [7]) is “induced into brown adipocytes expressing UCP1 gene, CIDEA gene and KCNK3 gene”. In addition, the KCNK3 gene expression entry in assay [1] (setting [7]) is “induced into brown adipocytes expressing UCP1 gene, CIDEA gene and KCNK3 gene”. Also, the UCP1 gene expression entry was “induced into brown adipocytes expressing UCP1 gene, CIDEA gene and KCNK3 gene” in assay [1] (setting [7]); “the highest expression of UCP1 gene was induced” in assay [3] (group 6: ALK5 inhibitor II 4 μM for days 0-8, then 6 days without it); “High expression of UCP1 gene was also induced” in assay [3] (groups 3-5, 7, 8: ALK5 inhibitor II 4 μM for Days 0-2, 0-4, 0-6, 0-10 or 0-14). Also, the “strength of induction of UCP1 gene expression, compared with LY2157299” value in assay [1] (ALK5 inhibitor II 4 μM versus LY2157299 8 μM, day 14) is reported as “more strongly induced”. Moreover, the “staining intensity of UCP1 protein and staining positive cells” value in assay [2] (#6: ALK5 inhibitor II 4 μM for days 0-8, then 6 days without it) is “the staining intensity of UCP1 protein was high and many staining positive cells were present”. Also, in assay [2] (HDFs, ALK5 inhibitor II 4 μM in adipocyte induction medium, day 14, FIG. 14A, 14B), the “UCP1 protein expression by immunostaining (conversion to brown adipocytes)” value is listed as “converted to brown adipocytes highly expressing UCP1 protein”. Moreover, the UCP1 protein expression entry in assay [2] (other conditions cultured in the presence of ALK5 inhibitor II (in FIG. #2-5, 7, 8)) is listed as “High expression of UCP1 protein was also detected”. Further, the “UCP1 gene expression (conversion to brown adipocytes)” value in assay [3] (HDFs, ALK5 inhibitor II 4 μM in adipocyte induction medium, day 14, FIG. 13) is “converted to brown adipocytes strongly expressing UCP1 gene”.

Regarding `NC(=O)c1ccc(-c2nc(-c3ccc4c(c3)OCCO4)c(-c3ccccn3)[nH]2)cc1` [D4476, 4-[4-(2,3-dihydro-1,4-benzodioxin-6-yl)-5-(2-pyridlnyl-)1H-imidazol-2-yl]-benzamide], the “Oil Red O staining” value in assay [4] was “remarkable Oil Red O staining as compared to the control”. For the same compound, in assay [5], the “lipid droplets stained with Bodipy and UCP1 protein” value was “converted to brown adipocytes expressing lipid droplets stained with Bodipy and UCP1 protein”. In addition, the “mRNA expression of UCP1 gene (conversion to brown adipocytes)” value in assay [6] is given as “induced to brown adipocytes that express mRNA of UCP1 gene”.
